From patent publication US12329727B2, “Use of salmeterol as an anti-coronaviral agent” (priority 2020, dated 2025)
Where two headings read alike, the source gives them in different places.

Assays:
SARS-CoV-2 pseudovirus = format: cell-based, SARS-CoV-2; HEK293 cells expressing ACE2
[1] = test system: NAADP-evoked Ca2+ release (TPC activity); format: biochemical, sea urchin
MERS-pseudovirus = format: cell-based, MERS-COV; Huh7 cells
ciliary beat frequency = conditions: cited from earlier work
mast cell degranulation = conditions: human lung; cited from earlier work

## xestospongin
SARS-CoV-2 pseudovirus; 10 μM
  inhibition of SARS-CoV-2 pseudovirus infectivity: no effect

## ryanodine
SARS-CoV-2 pseudovirus; 10 μM
  inhibition of SARS-CoV-2 pseudovirus infectivity: no effect

## CC(=O)OCOC(=O)CN(CC(=O)OCOC(C)=O)c1ccccc1OCCOc1ccccc1N(CC(=O)OCOC(C)=O)CC(=O)OCOC(C)=O [BAPTA-AM]
SARS-CoV-2 pseudovirus
  inhibition of SARS-CoV-2 pseudovirus infectivity: nearly complete inhibition

## OCc1cc(C(O)CNCCCCCCOCCCCc2ccccc2)ccc1O (racemic) [salmeterol, (RS)-2-(hydroxymethyl)-4-{1-hydroxy-2-[6-(4-phenylbutoxy)hexylamino]ethyl}phenol]
[1]
  inhibition of TPC activity: able to inhibit
  rank for TPC inhibition (amplitude of NAADP-evoked Ca2+ release, rank #1 = greatest inhibition): 16/1534
MERS-pseudovirus
  inhibition of MERS-COV infectivity in a pseudovirus translocation assay: potent and penetrant
SARS-CoV-2 pseudovirus; 10 μM
  inhibition of SARS-CoV-2 pseudovirus infectivity: pronounced inhibition
Ciliary beat frequency
  ciliary beat frequency: rapid and prolonged increase
Mast cell degranulation
  mast cell degranulation: potent and long-lasting inhibition

## NCCOB(c1ccccc1)c1ccccc1 [2-APB]
SARS-CoV-2 pseudovirus; 10 μM
  inhibition of SARS-CoV-2 pseudovirus infectivity: no effect
